{"source": "the supplement of paper PMC10307832"}
{"compound": "O=C(O)C(Cc1ccccc1[N+](=O)[O-])=NNc1nc(-c2ccc(Cl)c(Cl)c2)cs1 (mixture of isomers) [4EGI-1] + C[C@]1(O)C[C@@H](c2nc(-c3ccc4ccc(-c5ccccc5)nc4c3)c3c(N)nccn32)C1 [Linsitinib] (partner 1 µM)", "experiment": "relative viability (nuclei count vs DMSO), 5 days (fraction); higher = more cells survive", "details": "first compound 0.5 µM", "in_short": "(§1)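 After 5 days of treatment, lung cancer cells in 1536-well plates were fixed and stained in a single step (final 0.05% Triton X-100, 1% formaldehyde, 1 ug/ml Hoechst) and their nuclei counted on 4× images. Treatment had been applied by pin tool the day after seeding as one drug alone or as a fixed anchor-drug dose with five library-drug doses (not always all listed) in √10 steps. Relative viability is the nuclei count of treated wells divided by that of vehicle wells, and values are medians of duplicate plates.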"}
{"cell line": "NCI-H2228", "relative viability": 0.778}
{"cell line": "NCI-H2347", "relative viability": 1.08}
{"cell line": "NCI-H2405", "relative viability": 1.14}
{"cell line": "NCI-H3122", "relative viability": 1.04}
{"cell line": "PC-3 [JPC-3]", "relative viability": 0.96}
{"cell line": "PC-14", "relative viability": 1.01}
{"cell line": "RERF-LC-KJ", "relative viability": 0.966}
{"cell line": "SK-LU-1", "relative viability": 1.31}
{"cell line": "SK-MES-1", "relative viability": 1.12}
{"cell line": "SW 1573", "relative viability": 1}
{"cell line": "UMC-11", "relative viability": 1.06}
{"compound": "O=C(O)C(Cc1ccccc1[N+](=O)[O-])=NNc1nc(-c2ccc(Cl)c(Cl)c2)cs1 (mixture of isomers) [4EGI-1] + C[C@]1(O)C[C@@H](c2nc(-c3ccc4ccc(-c5ccccc5)nc4c3)c3c(N)nccn32)C1 [Linsitinib] (partner 1 µM)", "experiment": "relative viability (nuclei count vs DMSO), 5 days (fraction); higher = more cells survive", "details": "first compound 1.581 µM", "in_short": "as §1"}
{"cell line": "NCI-H2228", "relative viability": 0.783}
{"cell line": "NCI-H2347", "relative viability": 0.805}
{"cell line": "NCI-H2405", "relative viability": 0.889}
{"cell line": "NCI-H3122", "relative viability": 0.956}
{"cell line": "PC-3 [JPC-3]", "relative viability": 0.862}
{"cell line": "PC-14", "relative viability": 0.741}
{"cell line": "RERF-LC-KJ", "relative viability": 0.706}
{"cell line": "SK-LU-1", "relative viability": 1.35}
{"cell line": "SK-MES-1", "relative viability": 1.07}
{"cell line": "SW 1573", "relative viability": 0.669}
{"cell line": "UMC-11", "relative viability": 1.18}
{"compound": "O=C(O)C(Cc1ccccc1[N+](=O)[O-])=NNc1nc(-c2ccc(Cl)c(Cl)c2)cs1 (mixture of isomers) [4EGI-1] + C[C@]1(O)C[C@@H](c2nc(-c3ccc4ccc(-c5ccccc5)nc4c3)c3c(N)nccn32)C1 [Linsitinib] (partner 1 µM)", "experiment": "relative viability (nuclei count vs DMSO), 5 days (fraction); higher = more cells survive", "details": "first compound 5 µM", "in_short": "as §1"}
{"cell line": "NCI-H2228", "relative viability": 0.734}
{"cell line": "NCI-H2347", "relative viability": 0.96}
{"cell line": "NCI-H2405", "relative viability": 1.02}
{"cell line": "NCI-H3122", "relative viability": 0.943}
{"cell line": "PC-3 [JPC-3]", "relative viability": 0.96}
{"cell line": "PC-14", "relative viability": 0.983}
{"cell line": "RERF-LC-KJ", "relative viability": 0.868}
{"cell line": "SK-LU-1", "relative viability": 1.46}
{"cell line": "SK-MES-1", "relative viability": 1.1}
{"cell line": "SW 1573", "relative viability": 0.917}
{"cell line": "UMC-11", "relative viability": 1.02}
{"compound": "O=C(O)C(Cc1ccccc1[N+](=O)[O-])=NNc1nc(-c2ccc(Cl)c(Cl)c2)cs1 (mixture of isomers) [4EGI-1] + C[C@]1(O)C[C@@H](c2nc(-c3ccc4ccc(-c5ccccc5)nc4c3)c3c(N)nccn32)C1 [Linsitinib] (partner 1 µM)", "experiment": "relative viability (nuclei count vs DMSO), 5 days (fraction); higher = more cells survive", "details": "first compound 15.81 µM", "in_short": "as §1"}
{"cell line": "NCI-H2228", "relative viability": 0.721}
{"cell line": "NCI-H2347", "relative viability": 0.944}
{"cell line": "NCI-H2405", "relative viability": 1.02}
{"cell line": "NCI-H3122", "relative viability": 1.01}
{"cell line": "RERF-LC-KJ", "relative viability": 0.815}
{"cell line": "SK-LU-1", "relative viability": 1.14}
{"cell line": "SK-MES-1", "relative viability": 0.887}
{"cell line": "SW 1573", "relative viability": 0.741}
{"cell line": "UMC-11", "relative viability": 0.987}
{"compound": "O=C(O)C(Cc1ccccc1[N+](=O)[O-])=NNc1nc(-c2ccc(Cl)c(Cl)c2)cs1 (mixture of isomers) [4EGI-1] + C[C@]1(O)C[C@@H](c2nc(-c3ccc4ccc(-c5ccccc5)nc4c3)c3c(N)nccn32)C1 [Linsitinib] (partner 1 µM)", "experiment": "relative viability (nuclei count vs DMSO), 5 days (fraction); higher = more cells survive", "details": "first compound 50 µM", "in_short": "as §1"}
{"cell line": "NCI-H2228", "relative viability": 0.166}
{"cell line": "NCI-H2347", "relative viability": 0.87}
{"cell line": "NCI-H2405", "relative viability": 0.536}
{"cell line": "NCI-H3122", "relative viability": 0.567}
{"cell line": "PC-3 [JPC-3]", "relative viability": 0.889}
{"cell line": "PC-14", "relative viability": 0.94}
{"cell line": "RERF-LC-KJ", "relative viability": 0.843}
{"cell line": "SK-LU-1", "relative viability": 0.283}
{"cell line": "SK-MES-1", "relative viability": 0.987}
{"cell line": "SW 1573", "relative viability": 0.961}
{"cell line": "UMC-11", "relative viability": 0.399}
{"compound": "O=C(O)C(Cc1ccccc1[N+](=O)[O-])=NNc1nc(-c2ccc(Cl)c(Cl)c2)cs1 (mixture of isomers) [4EGI-1] + CCNC(=O)c1noc(-c2cc(C(C)C)c(O)cc2O)c1-c1ccc(CN2CCOCC2)cc1 [Luminespib] (partner 0.01 µM)", "experiment": "relative viability (nuclei count vs DMSO), 5 days (fraction); higher = more cells survive", "details": "first compound 0.5 µM", "in_short": "as §1"}
{"cell line": "NCI-H2228", "relative viability": 0.147}
{"cell line": "NCI-H2347", "relative viability": 0.499}
{"cell line": "NCI-H2405", "relative viability": 0.7}
{"cell line": "NCI-H3122", "relative viability": 0.082}
{"cell line": "PC-3 [JPC-3]", "relative viability": 0.829}
{"cell line": "PC-14", "relative viability": 0.466}
{"cell line": "RERF-LC-KJ", "relative viability": 1.16}
{"cell line": "SK-LU-1", "relative viability": 0.191}
{"cell line": "SK-MES-1", "relative viability": 0.705}
{"cell line": "SW 1573", "relative viability": 0.227}
{"cell line": "UMC-11", "relative viability": 1.07}
{"compound": "O=C(O)C(Cc1ccccc1[N+](=O)[O-])=NNc1nc(-c2ccc(Cl)c(Cl)c2)cs1 (mixture of isomers) [4EGI-1] + CCNC(=O)c1noc(-c2cc(C(C)C)c(O)cc2O)c1-c1ccc(CN2CCOCC2)cc1 [Luminespib] (partner 0.01 µM)", "experiment": "relative viability (nuclei count vs DMSO), 5 days (fraction); higher = more cells survive", "details": "first compound 1.581 µM", "in_short": "as §1"}
{"cell line": "NCI-H2228", "relative viability": 0.148}
{"cell line": "NCI-H2405", "relative viability": 0.486}
{"cell line": "NCI-H3122", "relative viability": 0.129}
{"cell line": "PC-3 [JPC-3]", "relative viability": 0.717}
{"cell line": "SK-LU-1", "relative viability": 0.208}
{"cell line": "SK-MES-1", "relative viability": 0.686}
{"cell line": "SW 1573", "relative viability": 0.198}
{"cell line": "UMC-11", "relative viability": 1.21}
{"compound": "O=C(O)C(Cc1ccccc1[N+](=O)[O-])=NNc1nc(-c2ccc(Cl)c(Cl)c2)cs1 (mixture of isomers) [4EGI-1] + CCNC(=O)c1noc(-c2cc(C(C)C)c(O)cc2O)c1-c1ccc(CN2CCOCC2)cc1 [Luminespib] (partner 0.01 µM)", "experiment": "relative viability (nuclei count vs DMSO), 5 days (fraction); higher = more cells survive", "details": "first compound 5 µM", "in_short": "as §1"}
{"cell line": "NCI-H2228", "relative viability": 0.258}
{"cell line": "NCI-H2347", "relative viability": 0.438}
{"cell line": "NCI-H2405", "relative viability": 0.836}
{"cell line": "NCI-H3122", "relative viability": 0.0842}
{"cell line": "PC-3 [JPC-3]", "relative viability": 0.718}
{"cell line": "PC-14", "relative viability": 0.195}
{"cell line": "RERF-LC-KJ", "relative viability": 1.17}
{"cell line": "SK-LU-1", "relative viability": 0.208}
{"cell line": "SK-MES-1", "relative viability": 0.831}
{"cell line": "SW 1573", "relative viability": 0.248}
{"cell line": "UMC-11", "relative viability": 0.999}
{"compound": "O=C(O)C(Cc1ccccc1[N+](=O)[O-])=NNc1nc(-c2ccc(Cl)c(Cl)c2)cs1 (mixture of isomers) [4EGI-1] + CCNC(=O)c1noc(-c2cc(C(C)C)c(O)cc2O)c1-c1ccc(CN2CCOCC2)cc1 [Luminespib] (partner 0.01 µM)", "experiment": "relative viability (nuclei count vs DMSO), 5 days (fraction); higher = more cells survive", "details": "first compound 15.81 µM", "in_short": "as §1"}
{"cell line": "NCI-H2228", "relative viability": 0.135}
{"cell line": "NCI-H2347", "relative viability": 0.426}
{"cell line": "NCI-H2405", "relative viability": 0.672}
{"cell line": "NCI-H3122", "relative viability": 0.106}
{"cell line": "PC-14", "relative viability": 0.155}
{"cell line": "RERF-LC-KJ", "relative viability": 0.994}
{"cell line": "SK-LU-1", "relative viability": 0.201}
{"cell line": "SK-MES-1", "relative viability": 0.669}
{"cell line": "SW 1573", "relative viability": 0.168}
{"cell line": "UMC-11", "relative viability": 0.99}
{"compound": "O=C(O)C(Cc1ccccc1[N+](=O)[O-])=NNc1nc(-c2ccc(Cl)c(Cl)c2)cs1 (mixture of isomers) [4EGI-1] + CCNC(=O)c1noc(-c2cc(C(C)C)c(O)cc2O)c1-c1ccc(CN2CCOCC2)cc1 [Luminespib] (partner 0.01 µM)", "experiment": "relative viability (nuclei count vs DMSO), 5 days (fraction); higher = more cells survive", "details": "first compound 50 µM", "in_short": "as §1"}
{"cell line": "NCI-H2228", "relative viability": 0.17}
{"cell line": "NCI-H2347", "relative viability": 0.411}
{"cell line": "NCI-H2405", "relative viability": 0.771}
{"cell line": "NCI-H3122", "relative viability": 0.084}
{"cell line": "PC-3 [JPC-3]", "relative viability": 0.543}
{"cell line": "PC-14", "relative viability": 0.155}
{"cell line": "RERF-LC-KJ", "relative viability": 0.281}
{"cell line": "SK-LU-1", "relative viability": 0.199}
{"cell line": "SK-MES-1", "relative viability": 0.188}
{"cell line": "SW 1573", "relative viability": 0.116}
{"cell line": "UMC-11", "relative viability": 0.598}
